Measured values: patent US5621102A, “Process for preparing enantiomerically pure xanthine derivatives” (Cell Therapeutics, Inc., priority 1995, dated 1997)
Several values for one entry are separate records, joined by “and”; a condition that tells them apart may be missing. Identical values can stand only once.

Key:
TNF-α = assay: mouse plasma TNF-α ELISA after endotoxin; format: in vivo, mice
Protocol: Each point represents the average of two experiments compiled from the average of duplicate ELISA measurements with each experimental point representing pooled plasma from three mice.
For ELISA measurements of cytokine levels in plasma, blood was collected by retro-orbital or cardiac puncture of anesthetized mice, immediately centrifuged and the EDTA plasma stored at -70° C. Particulate free plasma was thawed on ice and cytokine levels determined utilizing commercial ELISA assays with normal mouse plasma used to generate standard curves. Murine tumor necrosis factor-α and interleukin-1α kits were purchased from Genzyme (Cambridge, Mass.) and Endogen (Boston, Mass.), respectively. Each data point was an average of two ELISA measurements made from EDTA serum pooled from three mice. The data summarized in Table 3 were compiled from two independent experiments; data from Table 4 and 5 were from single experiments of three mice per data point.
Levels of TNF-α, IL-1α and IL-6 were measured in the plasma of mice as a function of time following treatment with S. abortus endotoxin. […] TNF-α levels peaked within 1 hour of treatment of endotoxin (Table 4 and FIG. 6). Treatment of the mice with CT1501R decreased the levels of TNF-α in the EDTA plasma of endotoxin treated mice at all time points measured. […]

thymocytes = assay: thymocyte costimulator assay (ConA and IL-1α or IL-2); format: cell-based, mice; settings: drug added two hours prior to activation
Protocol: CT1501R was added to the cells at the doses indicated two hours prior to activation with ConA and IL-1α or IL-2. Background counts were less than 200 cpm.
A thymocyte costimulator assay is conducted to evaluate the inventive compounds to inhibit activation and proliferation of thymocytes caused by stimulation with Con A and interleukin-1 (IL-1), or […]. Thymuses are obtained from mice (e.g., female Balb/C mice) and the thymuses are removed and dissociated into culture media (e.g., RPMI 1640 without serum supplementation). The dissociated thymus tissue and cell suspension is transferred to centrifuge tubes and allowed to settle, washed with HBSS and resuspended in serum-supplemented culture media (e.g., RPMI 1640 with 10% fetal calf serum). Any contaminating red cells are lysed, and viable cells are resuspended and counted. Thymocytes are plated (e.g., 96-well plates at a density of 2×10^5 cells/well) and a stimulating agent, such as Con A, IL-1 (e.g., IL-1α) or IL-2 is added to the well. The cells are incubated for 4 days at 37 ° C. On the fourth day, the ceils are pulsed with tritiated thymidine and cell proliferation determined. Inventive compounds are added at the time of stimulating agent addition.

[1] = tested on: endotoxin induced lethality; assay: endotoxin induced lethality in mice (septic shock model); format: in vivo, Balb/c mice; settings: for cumulative percent survival: 72 hours post LPS (LPS-only 7%); for survival (Number Surviving/Total): single experiments
Protocol: Animals were treated with 10 μg/gm of LPS (i.v.) Immediately following the LPS (t=0), 2 hrs after the LPS (t=2) or 4 hrs following LPS (t-4) the mice were treated with their first treatment of CT1501R (100 mg/kg, i.p.). The mice were treated with CT1501R three times per day thereafter, and animal survival was monitored.
This example illustrates the effect of CT1501R on survival in mice given a lethal dose of endotoxin. We determined if CT1501R protects against endotoxin induced lethality in a murine model. Septic shock was modeled by endotoxin injection of 6-8 week old female Balb/c mice similar to previously published reports (Ashkenazi et al. Proc. Natl. Acad. Sci. U.S.A. 88: 10535-10539, 1991) under protocols approved by the Animal Use Committee of the Biomembrane Institute, Seattle, Wash. Animals were injected intravaneously (i.v.) with an approximate LD100 dose (10 μg/g) of Salmonella abortus equi-derived endotoxin (Sigma Chemical Co., L-1887) in phosphate buffered saline (PBS). CT1501R at a dose of 100 μg/kg was injected intraperitoneally (IP) 3 times per day ([…]). Control mice were injected at the same times with a similar volume of vehicle control (PBS). Survival was followed for at least 72 hours.
Ten mice were treated each with PB S alone or CT 1501R alone on the same schedule as the experimental mice. […] Endotoxin survival data were summarized from a total of six (6) independent experiments. Summary Table 1 details the results of each of the six experiments. In FIG. 5, each time point represents a minimum of three (3) experiments comprising at least twenty (20) mice per group. A probability analysis of the survival data using a Fisher's Exact One Tailed Test is given as Table 3. Significant protection was conferred if CT1501R was administered immediately after the LPS treatment. The cumulative percent survival at 72 hours post LPS treatment was 60% compared to 7% for the LPS-only treated animals (p=<0.0005; Table 3).

For `C[C@@H](O)CCCCn1c(=O)c2c(ncn2C)n(C)c1=O` [CT1501R, (R)-1-(5-hydroxyhexyl)-3,7-dimethylxanthine], the “decrease of peak plasma TNF-α vs endotoxin only” value (TNF-α; 0.5 hour post endotoxin) was 2.5 fold, the “decrease of peak plasma TNF-α vs endotoxin only” value (TNF-α; 1 hour post endotoxin) was 2.6 fold and the “inhibition of thymocyte proliferation” value (thymocytes) was “inhibited thymocyte proliferation in a dose-response manner”. The cumulative percent survival ([1]; CT1501R four hours after LPS) was 37%, the cumulative percent survival ([1]; CT1501R immediately after LPS) was 60% and the cumulative percent survival ([1]; CT1501R two hours after LPS) was 55%. For the same compound, the “survival compared with published results for Genentech's bifunctional TNF receptor” value ([1]; drug given approximately simultaneously with or two hours following lethal LPS) was “consistently was better at improving survival than Genentech's TNF receptor”, the “survival (Number Surviving/Total)” value ([1]; first CT-1501R dose t = 0 Hr post LPS, 24 Hr post LPS) was 4/5 and 5/5 and 9/10 and the “survival (Number Surviving/Total)” value ([1]; first CT-1501R dose t = 0 Hr post LPS, 48 Hr post LPS) was 4/5 and 5/5 and 7/10. For the same compound, the “survival (Number Surviving/Total)” value ([1]; first CT-1501R dose t = 0 Hr post LPS, 72 Hr post LPS) was 4/5 and 5/5 and 3/10, the “survival (Number Surviving/Total)” value ([1]; first CT-1501R dose t = 2 Hr post LPS, 24 Hr post LPS) was 4/5 and 5/5 and 5/10 and the “survival (Number Surviving/Total)” value ([1]; first CT-1501R dose t = 2 Hr post LPS, 48 Hr post LPS) was 3/5 and 5/5 and 3/10. For the same compound, the “survival (Number Surviving/Total)” value ([1]; first CT-1501R dose t = 2 Hr post LPS, 72 Hr post LPS) was 3/5 and 5/5 and 3/10, the “survival (Number Surviving/Total)” value ([1]; first CT-1501R dose t = 4 Hr post LPS, 24 Hr post LPS) was 5/5 and 7/10 and 3/10 and the “survival (Number Surviving/Total)” value ([1]; first CT-1501R dose t = 4 Hr post LPS, 48 Hr post LPS) was 3/5 and 5/10 and 4/10 and 3/10. For the same compound, the “survival (Number Surviving/Total)” value ([1]; first CT-1501R dose t = 4 Hr post LPS, 72 Hr post LPS) was 3/5 and 5/10 and 2/10 and 3/10 and the “adverse effects, drug alone without endotoxin” value ([1]; ten mice, same schedule as the experimental mice) was “no adverse effects noted”.
